From patent US10617693B2, “Methods of treating and/or preventing actinic keratosis” (Athenex, Inc., priority 2017, dated 2020)

Assays:
[1] = tested on: AK lesions on the dorsal forearm; experiment: Phase 1 study KX01-AK-01-US: AK lesion counts and clearance; assay type: in vivo, human
Method: KX-01 was administered topically on treatment days. […] Standardized photography of the treatment area was performed.

[2] = tested on: AK lesions on the face or scalp; experiment: Phase 2a study KX01-AK-002: AK lesion counts and clearance at day 57, 0.5 mg KX-01 on 25 cm^2; assay type: in vivo, human; conditions: for Subjects with 100% clearance of AK lesions on day 57 / Subjects with at least 75% reduction of AK lesions on day 57 / AK lesion count, median: Cohort 1 (5-day), interim
From the text: An ongoing Phase 2a, open-label, multicenter, activity and safety study of KX-01 administered topically in subjects with AK on the face or scalp is described herein. […] Secondary objectives are to assess the activity of KX-01 administered topically during Days 1-57 based on reduction of AK lesion counts from baseline, assess the safety and tolerability and pharmacokinetics, and contrast the dose regimens (5-day treatment with 3-day treatment) in terms of activity and safety in subjects with AK on the face or scalp. This uncontrolled, nonrandomized trial is being conducted at 16 investigational sites in the United States. Enrollment is sequential for 2 cohorts of approximately 80 subjects each. Enrollment is closed for Cohort 1 and ongoing for Cohort 2. The two treatment cohorts are summarized below: • Cohort 1: 0.5 mg KX-01 administered topically to a contiguous treatment area of 25 cm^2 with 4-8 clinically typical AK lesions for 5 consecutive days • Cohort 2: 0.5 mg KX-01 administered topically to a contiguous treatment area of 25 cm^2 with 4-8 clinically typical AK lesions for 3 consecutive days
0.5 mg KX-01 is administered topically to an area of 25 cm^2 on the face or scalp by site staff on treatment days. […] AK lesion counts are recorded at baseline, days 8, 15, 29, and 57. […] Standardized photography of treatment area is performed at baseline, day 8 and day 57. Plasma samples are being collected at preplanned time points on days 1 and 5 for Cohort 1, and on days 1 and 3 for Cohort 2.
The Phase 2a trial described in Example 2a was completed with 84 eligible subjects enrolled in each of two cohorts: one cohort was subjected to the treatment for 5 consecutive days, and the other cohort was subjected to the treatment for 3 consecutive days. The results are described below and in FIG. 5.

O=C(Cc1ccc(-c2ccc(OCCN3CCOCC3)cc2)cn1)NCc1ccccc1 [KX-01]
Complete Clearance on Day 45 (100% reduction in AK lesions vs Baseline), n/N (%) ([1]; Cohort 2: 2 mg/100 cm^2 QD x3 days): 0/10 | AK lesion count, median (min, max) ([1]; Day 1 (Baseline), Cohort 1: 0.5 mg/25 cm^2 QD x3 days): 5.0 (4, 5) | AK lesion count, median (min, max) ([1]; Day 1 (Baseline), Cohort 2: 2 mg/100 cm^2 QD x3 days): 11.5 (8, 16) | AK lesion count, median (min, max) ([1]; Day 1 (Baseline), Cohort 3: 0.5 mg/25 cm^2 QD x5 days): 6.0 (5, 6) | AK lesion count, median (min, max) ([1]; Day 1 (Baseline), Cohort 4: 2 mg/100 cm^2 QD x5 days): 11.0 (10, 16) | AK lesion count, median (min, max) ([1]; Day 4, Cohort 1: 0.5 mg/25 cm^2 QD x3 days): 5.0 (4, 5) | AK lesion count, median (min, max) ([1]; Day 4, Cohort 2: 2 mg/100 cm^2 QD x3 days): 9.0 (6, 16) | AK lesion count, median (min, max) ([1]; Day 10, Cohort 1: 0.5 mg/25 cm^2 QD x3 days): 5.0 (4, 5) | AK lesion count, median (min, max) ([1]; Day 10, Cohort 2: 2 mg/100 cm^2 QD x3 days): 7.0 (6, 11) | AK lesion count, median (min, max) ([1]; Day 10, Cohort 3: 0.5 mg/25 cm^2 QD x5 days): 5.0 (5, 6) | AK lesion count, median (min, max) ([1]; Day 10, Cohort 4: 2 mg/100 cm^2 QD x5 days): 10.0 (10, 10) | AK lesion count, median (min, max) ([1]; Day 17, Cohort 1: 0.5 mg/25 cm^2 QD x3 days): 4.5 (3, 5) | AK lesion count, median (min, max) ([1]; Day 17, Cohort 2: 2 mg/100 cm^2 QD x3 days): 7.0 (5, 15) | AK lesion count, median (min, max) ([1]; Day 17, Cohort 3: 0.5 mg/25 cm^2 QD x5 days): 5.0 (4, 6) | AK lesion count, median (min, max) ([1]; Day 17, Cohort 4: 2 mg/100 cm^2 QD x5 days): 10.0 (10, 11) | AK lesion count, median (min, max) ([1]; Day 31, Cohort 1: 0.5 mg/25 cm^2 QD x3 days): 3.5 (1, 5) | AK lesion count, median (min, max) ([1]; Day 31, Cohort 2: 2 mg/100 cm^2 QD x3 days): 7.0 (1, 15) | AK lesion count, median (min, max) ([1]; Day 31, Cohort 3: 0.5 mg/25 cm^2 QD x5 days): 1.0 (0, 6) | AK lesion count, median (min, max) ([1]; Day 31, Cohort 4: 2 mg/100 cm^2 QD x5 days): 6.0 (0, 11) | AK lesion count, median (min, max) ([1]; Day 45, Cohort 1: 0.5 mg/25 cm^2 QD x3 days): 2.5 (0, 4) | AK lesion count, median (min, max) ([1]; Day 45, Cohort 2: 2 mg/100 cm^2 QD x3 days): 4.0 (1, 10) | AK lesion count, median (min, max) ([1]; Day 45, Cohort 3: 0.5 mg/25 cm^2 QD x5 days): 0.5 (0, 4) | AK lesion count, median (min, max) ([1]; Day 45, Cohort 4: 2 mg/100 cm^2 QD x5 days): 4.5 (0, 12) | Change in AK lesion counts over time ([1]; all 4 cohorts): reductions in mean baseline AK lesion counts over time | Activity of 5-day versus 3-day regimen ([1]; rates of complete and partial clearance): 5-day regimen may provide better activity than the 3-day regimen | Activity compared to Picato Phase 3 studies ([2]; 5-day regimen, cross-study tabulation): may be comparable | Subjects with 100% clearance of AK lesions on day 57 ([2]; face, 35 subjects): 43% | Subjects with at least 75% reduction of AK lesions on day 57 ([2]; face, 35 subjects): 60% | Subjects with 100% clearance of AK lesions on day 57 ([2]; overall, 67 subjects): 36% | Subjects with at least 75% reduction of AK lesions on day 57 ([2]; overall, 67 subjects): 51% | Subjects with 100% clearance of AK lesions on day 57 ([2]; scalp, 32 subjects): 28% | Subjects with at least 75% reduction of AK lesions on day 57 ([2]; scalp, 32 subjects): 41% | AK lesion count, median ([2]; Day 1): 6.0 | AK lesion count, median ([2]; Day 8): 5.0 | AK lesion count, median ([2]; Day 15): 4.0 | AK lesion count, median ([2]; Day 29): 2.0 | AK lesion count, median ([2]; Day 57): 2.0 | Activity of 5-day versus 3-day regimen ([2]; Examples 1, 2a and 2b): greater activity than the 3-day regimen
